Measurements from patent US9695155B2, “Herbicidal substituted pyrimidinyloxy benzene compounds” (E. I. DU PONT DE NEMOURS AND COMPANY, priority 2013, dated 2017).

Assays:
barnyardgrass [1] = assay: Test A preemergence; format: in vivo, Echinochloa crus-galli; conditions: 0 to 100 scale, 0 no effect, 100 complete control, approx. 10 days
Outline: (§1)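 Injury scores run from 0, no effect, to 100, complete control, judged by eye against untreated plants roughly 10 days after treatment. Chemicals carried a surfactant in a non-phytotoxic solvent and went onto loam–sand soil preemergence or onto one- to two-leaf seedlings postemergence.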

kochia [2] = assay: Test A preemergence; format: in vivo, Kochia scoparia; conditions: 0 to 100 scale, 0 no effect, 100 complete control, approx. 10 days
Description: (§2) Seeds of plant species selected from barnyardgrass (Echinochloa crus-galli), kochia (Kochia scoparia), ragweed (common ragweed, Ambrosia elatior), Italian ryegrass (Lolium multiflorum), large (Lg) crabgrass (Digitaria sanguinalis), giant foxtail (Setaria faberii), morningglory (Ipomoea spp.), pigweed (Amaranthus retroflexus), velvetleaf (Abutilon theophrasti), wheat (Triticum aestivum), and corn (Zea mays) were planted into a blend of loam soil and sand and treated preemergence with a directed soil spray using test chemicals formulated in a non-phytotoxic solvent mixture which included a surfactant.
(§3) At the same time, plants selected from these crop and weed species and also blackgrass (Alopecurus myosuroides), and galium (catchweed bedstraw, Galium aparine) were planted in pots containing the same blend of loam soil and sand and treated with postemergence applications of test chemicals formulated in the same manner. Plants ranged in height from 2 to 10 cm and were in the one- to two-leaf stage for the postemergence treatment. Treated plants and untreated controls were maintained in a greenhouse for approximately 10 days, after which time all treated plants were compared to untreated controls and visually evaluated for injury. Plant response ratings, summarized in Table A, are based on a 0 to 100 scale where 0 is no effect and 100 is complete control. A dash (-) response means no test result.

ragweed [3] = assay: Test A preemergence; format: in vivo, Ambrosia elatior; conditions: 0 to 100 scale, 0 no effect, 100 complete control, approx. 10 days
Description: as §2, §3

Italian ryegrass [4] = assay: Test A preemergence; format: in vivo, Lolium multiflorum; conditions: 0 to 100 scale, 0 no effect, 100 complete control, approx. 10 days
Description: as §2, §3

giant foxtail [5] = assay: Test A preemergence; format: in vivo, Setaria faberii; conditions: 0 to 100 scale, 0 no effect, 100 complete control, approx. 10 days
Outline: as §1

pigweed [6] = assay: Test A preemergence; format: in vivo, Amaranthus retroflexus; conditions: 0 to 100 scale, 0 no effect, 100 complete control, approx. 10 days
Outline: as §1

barnyardgrass [7] = assay: Test A postemergence; format: in vivo, Echinochloa crus-galli; conditions: 0 to 100 scale, 0 no effect, 100 complete control
Outline: as §1

kochia [8] = assay: Test A postemergence; format: in vivo, Kochia scoparia
Description: as §2, §3

ragweed [9] = assay: Test A postemergence; format: in vivo, Ambrosia elatior
Description: as §2, §3

Italian ryegrass [10] = assay: Test A postemergence; format: in vivo, Lolium multiflorum
Description: as §2, §3

giant foxtail [11] = assay: Test A postemergence; format: in vivo, Setaria faberii
Outline: as §1

pigweed [12] = assay: Test A postemergence; format: in vivo, Amaranthus retroflexus
Outline: as §1

wheat = assay: Test A postemergence; format: in vivo, Triticum aestivum
Outline: as §1

corn = assay: Test A postemergence; format: in vivo, Zea mays; conditions: 0 to 100 scale, 0 no effect, 100 complete control
Outline: as §1

blackgrass = assay: Test A postemergence; format: in vivo, Alopecurus myosuroides; conditions: 0 to 100 scale, 0 no effect, 100 complete control
Description: as §2, §3

galium = assay: Test A postemergence; format: in vivo, Galium aparine
Description: as §2, §3

[13] = 1000 g ai/ha, 0 to 100 scale, 0 no effect, 100 complete control
[14] = 500 g ai/ha, 0 to 100 scale where 0 is no effect and 100 is complete control

SMILES	Barnyardgrass plant response rating (barnyardgrass [1]; 1000 g ai/ha)	Kochia plant response rating (kochia [2]; 1000 g ai/ha)	Ragweed plant response rating (ragweed [3]; 1000 g ai/ha)	Ryegrass, Italian plant response rating (Italian ryegrass [4]; 1000 g ai/ha)	Foxtail, Giant plant response rating (giant foxtail [5]; 1000 g ai/ha)	Pigweed plant response rating (pigweed [6]; 1000 g ai/ha)	Plant response rating, Barnyardgrass (barnyardgrass [7]; 1000 g ai/ha)	Plant response rating, Kochia (kochia [8]; [13])	Plant response rating, Ragweed (ragweed [9]; [13])	Plant response rating, Ryegrass, Italian (Italian ryegrass [10]; [13])	Plant response rating, Foxtail, Giant (giant foxtail [11]; [13])	Plant response rating, Pigweed (pigweed [12]; [13])	Plant response rating, Wheat (wheat; [13])	Plant response rating, Corn (corn; 1000 g ai/ha)	Plant response rating, Blackgrass (blackgrass; 1000 g ai/ha)	Plant response rating, Galium (galium; [13])	also measured
CN(C)C(=O)c1cccc(Oc2ncc(Cl)cn2)c1-n1cc(C(F)(F)F)cn1 [Compound 255]	10	70	20	20	10	60	10	50	10	0	10	30	0	0	10	10	
Oc1cccc(Oc2ncc(Cl)cn2)c1-n1cc(Br)cn1 [Compound 68]																	Barnyardgrass plant response rating (barnyardgrass [1]; 500 g ai/ha): 0; Kochia plant response rating (kochia [2]; 500 g ai/ha): 0; Ragweed plant response rating (ragweed [3]; 500 g ai/ha): 0; Ryegrass, Italian plant response rating (Italian ryegrass [4]; 500 g ai/ha): 0; Foxtail, Giant plant response rating (giant foxtail [5]; 500 g ai/ha): 0; Pigweed plant response rating (pigweed [6]; 500 g ai/ha): 30; Plant response rating, Barnyardgrass (barnyardgrass [7]; 500 g ai/ha): 0; Plant response rating, Kochia (kochia [8]; [14]): 0; Plant response rating, Ragweed (ragweed [9]; [14]): 0; Plant response rating, Ryegrass, Italian (Italian ryegrass [10]; [14]): 0; Plant response rating, Foxtail, Giant (giant foxtail [11]; [14]): 0; Plant response rating, Pigweed (pigweed [12]; [14]): 0; Plant response rating, Wheat (wheat; [14]): 0; Plant response rating, Corn (corn; 500 g ai/ha): 0; Plant response rating, Blackgrass (blackgrass; 500 g ai/ha): 0; Plant response rating, Galium (galium; [14]): 0
CCN(C)C(=O)c1cccc(Oc2ncc(Cl)cn2)c1-n1cc(C(F)(F)F)cn1 [Compound 262]	0	20	0	0	50	10	10	30	10	0	10	50	0	0	10	10	
NC(=O)c1cnn(-c2ccccc2Oc2ncc(Cl)cn2)c1 [Compound 281]	0	0	30	10	0	60	0	70	70	0	0	70	0	10	0	60	
